In the NIST ThermoML archive (doi:10.1016/j.fluid.2016.02.009):
± gives the expanded uncertainty stated by the source.

Details: Liquid, Vibrating tube method

CCCOCCC [dipropyl ether]
Details	mass density [kg/m3]
283.15 K, 100 kPa	757.39 ± 0.3
283.15 K, 5000 kPa	762.38 ± 0.33
283.15 K, 10000 kPa	767.05 ± 0.36
283.15 K, 15000 kPa	771.45 ± 0.39
283.15 K, 20000 kPa	775.62 ± 0.43
283.15 K, 25000 kPa	779.52 ± 0.46
283.15 K, 30000 kPa	783.28 ± 0.49
283.15 K, 35000 kPa	786.9 ± 0.53
283.15 K, 40000 kPa	790.38 ± 0.56
283.15 K, 45000 kPa	793.67 ± 0.6
283.15 K, 50000 kPa	796.87 ± 0.63
283.15 K, 55000 kPa	800.02 ± 0.66
283.15 K, 60000 kPa	802.99 ± 0.69
283.15 K, 65000 kPa	805.87 ± 0.72
288.15 K, 100 kPa	752.52 ± 0.3
288.15 K, 5000 kPa	757.69 ± 0.33
288.15 K, 10000 kPa	762.5 ± 0.36
288.15 K, 15000 kPa	767.01 ± 0.4
288.15 K, 20000 kPa	771.21 ± 0.43
288.15 K, 25000 kPa	775.22 ± 0.46
288.15 K, 30000 kPa	779.05 ± 0.49
288.15 K, 35000 kPa	782.73 ± 0.53
288.15 K, 40000 kPa	786.26 ± 0.57
288.15 K, 45000 kPa	789.68 ± 0.6
288.15 K, 50000 kPa	792.99 ± 0.64
288.15 K, 55000 kPa	796.16 ± 0.67
288.15 K, 60000 kPa	799.26 ± 0.7
288.15 K, 65000 kPa	802.29 ± 0.73
293.15 K, 100 kPa	747.63 ± 0.3
293.15 K, 5000 kPa	752.98 ± 0.33
293.15 K, 10000 kPa	757.94 ± 0.36
293.15 K, 15000 kPa	762.58 ± 0.4
293.15 K, 20000 kPa	766.89 ± 0.43
293.15 K, 25000 kPa	771.01 ± 0.46
293.15 K, 30000 kPa	774.94 ± 0.5
293.15 K, 35000 kPa	778.69 ± 0.54
293.15 K, 40000 kPa	782.3 ± 0.57
293.15 K, 45000 kPa	785.81 ± 0.61
293.15 K, 50000 kPa	789.18 ± 0.64
293.15 K, 55000 kPa	792.44 ± 0.68
293.15 K, 60000 kPa	795.56 ± 0.71
293.15 K, 65000 kPa	798.64 ± 0.74
298.15 K, 100 kPa	742.71 ± 0.3
298.15 K, 5000 kPa	748.24 ± 0.33
298.15 K, 10000 kPa	753.37 ± 0.37
298.15 K, 15000 kPa	758.15 ± 0.4
298.15 K, 20000 kPa	762.57 ± 0.43
298.15 K, 25000 kPa	766.81 ± 0.47
298.15 K, 30000 kPa	770.85 ± 0.5
298.15 K, 35000 kPa	774.71 ± 0.54
298.15 K, 40000 kPa	778.42 ± 0.58
298.15 K, 45000 kPa	781.98 ± 0.62
298.15 K, 50000 kPa	785.42 ± 0.65
298.15 K, 55000 kPa	788.74 ± 0.69
298.15 K, 60000 kPa	791.97 ± 0.72
298.15 K, 65000 kPa	795.06 ± 0.75
303.15 K, 100 kPa	737.77 ± 0.3
303.15 K, 5000 kPa	743.49 ± 0.33
303.15 K, 10000 kPa	748.78 ± 0.37
303.15 K, 15000 kPa	753.68 ± 0.4
303.15 K, 20000 kPa	758.26 ± 0.44
303.15 K, 25000 kPa	762.61 ± 0.47
303.15 K, 30000 kPa	766.76 ± 0.51
303.15 K, 35000 kPa	770.7 ± 0.55
303.15 K, 40000 kPa	774.48 ± 0.59
303.15 K, 45000 kPa	778.13 ± 0.62
303.15 K, 50000 kPa	781.64 ± 0.66
303.15 K, 55000 kPa	785.01 ± 0.69
303.15 K, 60000 kPa	788.28 ± 0.73
303.15 K, 65000 kPa	791.45 ± 0.76
308.15 K, 100 kPa	732.8 ± 0.3
308.15 K, 5000 kPa	738.69 ± 0.33
308.15 K, 10000 kPa	744.18 ± 0.37
308.15 K, 15000 kPa	749.22 ± 0.4
308.15 K, 20000 kPa	753.95 ± 0.44
308.15 K, 25000 kPa	758.41 ± 0.48
308.15 K, 30000 kPa	762.65 ± 0.51
308.15 K, 35000 kPa	766.7 ± 0.55
308.15 K, 40000 kPa	770.6 ± 0.59
308.15 K, 45000 kPa	774.31 ± 0.63
308.15 K, 50000 kPa	777.92 ± 0.67
308.15 K, 55000 kPa	781.37 ± 0.7
308.15 K, 60000 kPa	784.7 ± 0.74
308.15 K, 65000 kPa	787.86 ± 0.77
313.15 K, 100 kPa	727.8 ± 0.3
313.15 K, 5000 kPa	733.9 ± 0.33
313.15 K, 10000 kPa	739.57 ± 0.37
313.15 K, 15000 kPa	744.77 ± 0.41
313.15 K, 20000 kPa	749.62 ± 0.44
313.15 K, 25000 kPa	754.2 ± 0.48
313.15 K, 30000 kPa	758.55 ± 0.52
313.15 K, 35000 kPa	762.71 ± 0.56
313.15 K, 40000 kPa	766.68 ± 0.6
313.15 K, 45000 kPa	770.47 ± 0.64
313.15 K, 50000 kPa	774.17 ± 0.67
313.15 K, 55000 kPa	777.67 ± 0.71
313.15 K, 60000 kPa	781.06 ± 0.75
313.15 K, 65000 kPa	784.29 ± 0.78
318.15 K, 100 kPa	722.77 ± 0.3
318.15 K, 5000 kPa	729.04 ± 0.34
318.15 K, 10000 kPa	735.01 ± 0.37
318.15 K, 15000 kPa	740.33 ± 0.41
318.15 K, 20000 kPa	745.32 ± 0.45
318.15 K, 25000 kPa	750.04 ± 0.48
318.15 K, 30000 kPa	754.51 ± 0.52
318.15 K, 35000 kPa	758.76 ± 0.57
318.15 K, 40000 kPa	762.84 ± 0.61
318.15 K, 45000 kPa	766.72 ± 0.64
318.15 K, 50000 kPa	770.47 ± 0.68
318.15 K, 55000 kPa	774.07 ± 0.72
318.15 K, 60000 kPa	777.53 ± 0.75
318.15 K, 65000 kPa	780.73 ± 0.79
323.15 K, 100 kPa	717.7 ± 0.3
323.15 K, 5000 kPa	724.25 ± 0.34
323.15 K, 10000 kPa	730.31 ± 0.37
323.15 K, 15000 kPa	735.84 ± 0.41
323.15 K, 20000 kPa	741 ± 0.45
323.15 K, 25000 kPa	745.84 ± 0.49
323.15 K, 30000 kPa	750.43 ± 0.53
323.15 K, 35000 kPa	754.79 ± 0.57
323.15 K, 40000 kPa	758.96 ± 0.61
323.15 K, 45000 kPa	762.93 ± 0.65
323.15 K, 50000 kPa	766.76 ± 0.69
323.15 K, 55000 kPa	770.41 ± 0.73
323.15 K, 60000 kPa	773.95 ± 0.76
323.15 K, 65000 kPa	777.21 ± 0.8
328.15 K, 100 kPa	712.59 ± 0.3
328.15 K, 5000 kPa	719.28 ± 0.34
328.15 K, 10000 kPa	725.68 ± 0.38
328.15 K, 15000 kPa	731.37 ± 0.41
328.15 K, 20000 kPa	736.67 ± 0.45
328.15 K, 25000 kPa	741.66 ± 0.49
328.15 K, 30000 kPa	746.37 ± 0.53
328.15 K, 35000 kPa	750.85 ± 0.58
328.15 K, 40000 kPa	755.1 ± 0.62
328.15 K, 45000 kPa	759.16 ± 0.66
328.15 K, 50000 kPa	763.06 ± 0.7
328.15 K, 55000 kPa	766.79 ± 0.73
328.15 K, 60000 kPa	770.38 ± 0.77
328.15 K, 65000 kPa	773.71 ± 0.81
333.15 K, 100 kPa	707.45 ± 0.3
333.15 K, 5000 kPa	714.57 ± 0.34
333.15 K, 10000 kPa	721.03 ± 0.38
333.15 K, 15000 kPa	726.88 ± 0.42
333.15 K, 20000 kPa	732.34 ± 0.46
333.15 K, 25000 kPa	737.47 ± 0.49
333.15 K, 30000 kPa	742.3 ± 0.54
333.15 K, 35000 kPa	746.89 ± 0.58
333.15 K, 40000 kPa	751.24 ± 0.62
333.15 K, 45000 kPa	755.35 ± 0.67
333.15 K, 50000 kPa	759.32 ± 0.7
333.15 K, 55000 kPa	763.16 ± 0.74
333.15 K, 60000 kPa	766.84 ± 0.78
333.15 K, 65000 kPa	770.23 ± 0.82
